Test results published in PMC5640644, “HDX reveals the conformational dynamics of DNA sequence specific VDR co-activator interactions” (Nature Communications, 2017).

Target: T1, VDRRXRα heterodimer (Homo sapiens, UniProt P11473, DEL151-190)
T1 construct: Full-length WT His-hVDR (Δ (151–190)) and WT Flag-h RXRα were expressed in a baculovirus system; His; made in house; host or cells: baculovirus system (VDR, RXRα); Escherichia coli BL21 DE3 (SRC1 RID)
T1 sequence (P11473 with tags, fused parts or gaps DEL151-190): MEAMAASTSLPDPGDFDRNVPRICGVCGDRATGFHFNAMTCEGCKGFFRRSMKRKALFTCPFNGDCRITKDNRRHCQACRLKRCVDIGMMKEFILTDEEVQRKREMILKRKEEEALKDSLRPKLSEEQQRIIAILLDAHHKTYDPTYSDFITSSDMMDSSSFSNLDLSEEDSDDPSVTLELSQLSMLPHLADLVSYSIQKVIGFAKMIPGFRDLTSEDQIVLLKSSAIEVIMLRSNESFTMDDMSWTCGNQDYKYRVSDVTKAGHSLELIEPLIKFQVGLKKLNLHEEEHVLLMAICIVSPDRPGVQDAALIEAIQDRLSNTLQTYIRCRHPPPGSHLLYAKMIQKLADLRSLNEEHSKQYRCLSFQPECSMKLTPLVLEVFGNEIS
T1 sequence (P19793 1-462 partner): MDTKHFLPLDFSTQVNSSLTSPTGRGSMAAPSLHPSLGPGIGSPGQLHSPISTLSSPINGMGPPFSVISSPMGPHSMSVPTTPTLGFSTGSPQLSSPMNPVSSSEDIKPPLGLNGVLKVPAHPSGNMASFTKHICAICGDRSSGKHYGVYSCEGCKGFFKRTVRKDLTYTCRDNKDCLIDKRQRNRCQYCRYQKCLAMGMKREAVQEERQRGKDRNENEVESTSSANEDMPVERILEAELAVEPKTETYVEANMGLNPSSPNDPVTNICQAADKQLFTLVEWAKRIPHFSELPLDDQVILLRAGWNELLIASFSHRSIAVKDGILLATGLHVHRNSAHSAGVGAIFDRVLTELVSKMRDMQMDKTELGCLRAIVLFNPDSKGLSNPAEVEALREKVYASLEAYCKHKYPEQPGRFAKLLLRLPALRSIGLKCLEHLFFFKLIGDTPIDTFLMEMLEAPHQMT
T1 sequence (Q15788 627-786 partner limits assumed): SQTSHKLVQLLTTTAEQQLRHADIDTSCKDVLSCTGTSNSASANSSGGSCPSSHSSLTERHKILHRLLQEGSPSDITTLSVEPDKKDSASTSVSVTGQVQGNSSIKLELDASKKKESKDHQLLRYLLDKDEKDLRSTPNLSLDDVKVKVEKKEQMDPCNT
Test: Differential HDX-MS of liganded full-length VDRRXRα heterodimer with DNA VBS and SRC1 RID
Type: binding
Conditions: for decrease in solvent exchange within H12 of VDR upon SRC1 RID binding: ligand-heterodimer-DR3 or -DR3 half-site complex (both alike), aa412−419 for Cmpd1; for ΔΔHDX in the VDR hinge region (aa97−108): ΔHDX heterodimer:agonist ± DR3 minus ΔHDX heterodimer:agonist ± DR3 half-site
Experimental: The final protein buffer was 50 mM Tris (pH 8.0), 150 mM NaCl, 10% glycerol and 2 mM DTT.
The DR3 VBS 5′-[…]-3′, DR3 half-site VBS 5′-[…]-3′, BGLAP VBS 5′-[…]-3′, BGLAP* VBS 5′-[…]-3′ and TRPV6 VBS 5′-[…]-3′ duplex oligonucleotides were purchased from Integrated DNA Technologies. […] SRC1 RID was added in a 2× molar ratio to heterodimer, and oligonucleotide (VBS) was mixed with the protein complex as needed (1.5× molar ratio). […]
Solution-phase amide HDX experiments were carried out with a fully automated system (CTC HTS PAL, LEAP Technologies, Carrboro, NC; housed inside a 4 °C cabinet) as follows.
HDX-MS analysis: 10 μM of the apo protein was mixed with 1:10 molar excess of ligand and incubated for 2 h at 4 °C for complex formation before subjecting them to HDX analysis. For the differential HDX experiments, 5 μl of either the apo or the liganded protein complex with DNA and SRC1 RID were mixed with 20 μl of D2O-containing HDX buffer (50 mM Tris, pH 8.0, 150 mM NaCl, and 2 mM DTT) and incubated at 4 °C for 0 s, 10 s, 30 s, 60 s, 300 s, 900 s, or 3,600 s. Following on-exchange, unwanted forward-exchange or back-exchange was minimized and the protein was denatured by the addition of 25 μl of a quench solution (1% v/v TFA in 3 M urea and 50 mM TCEP). Samples were then immediately passed through an immobilized pepsin column (prepared in house) at 50 μl min-1 (0.1% v/v TFA, 15 °C) and the resulting peptides were trapped and desalted on a 1.0 mm × 10 mm C8 trap column (Hypersil Gold, Thermo Fisher, Grand Island, NY). The bound peptides were then gradient-eluted (5–50% CH3CN v/v and 0.3% v/v formic acid) across a 1.0 mm × 50 mm C18 separation column (Hypersil Gold, Thermo Fisher, Grand Island, NY) for 6 min. Sample handling and peptide separation were conducted at 4 °C. The eluted peptides were then subjected to electrospray ionization directly coupled to a high resolution Orbitrap mass spectrometer (LTQ Orbitrap XL with ETD, Q Exactive, or Exactive, Thermo Fisher Scientific, San Jose, CA). Each HDX experiment was carried out in triplicate with a single preparation of each protein-ligand complex. The intensity weighted mean m/z centroid value of each peptide envelope was calculated and subsequently converted into a percentage of deuterium incorporation. This is accomplished by determining the observed averages of the undeuterated and fully deuterated spectra using the conventional formula described elsewhere. […] Statistical significance for the differential HDX data is determined by an unpaired t-test for each time point, a procedure that is integrated into the HDX Workbench software.
Data Statistics: Deuterium uptake for each peptide is calculated as the average of % D for all on-exchange time points and the difference in average %D values between the apo and ligand bound samples is presented as a heat map with a color code given at the bottom of the figure (warm colors for deprotection and cool colors for protection). […] Peptides with non-significant changes between the two states are colored gray. The exchange at the first two residues for any given peptide is not colored.

[1] = both ligand-heterodimer-VBS complexes (DR3, DR3 half-site)

SMILES	decreased exchange for H1 of VDR upon SRC1 RID interaction [1]	decreased exchange for H3 of VDR upon SRC1 RID interaction [1]	decrease in solvent exchange within H12 of VDR upon SRC1 RID binding	ΔΔHDX in the VDR hinge region (aa97−108) [%]	further reduction in deuterium exchange of VDR AF2 H12 upon binding of TRPV6 VBS (ligand-bound heterodimer, not observed upon binding the BGLAP VBS)	protection to solvent exchange at VDR AF2 surface upon SRC1 RID interaction (ligand-heterodimer-BGLAP VBS complex)	protection to solvent exchange at VDR AF2 surface upon SRC1 RID interaction (ligand-heterodimer-TRPV6 VBS complex)
CCc1cc(C(CC)(CC)c2ccc(OCC(O)C(C)(C)C)c(C)c2)sc1C(=O)N[C@@H](C)C(=O)O (single isomer, unassigned) [Cmpd2, L-2-[(5-{1-Ethyl-1-[4-(2-hydroxy-3,3-dimethyl-butoxy)-3-methyl-phenyl]-propyl}-3-ethyl-thiophene-2-carbonyl)-amino]-propionic acid]	~ 6%	~ 9%	~ 20%	19			
CCC(CC)(c1ccc(OCC(O)C(C)(C)C)c(C)c1)c1ccc(C(=O)N(C)CC(=O)O)c(C)c1 (stereo not drawn) [Cmpd1, [(4-{1-ethyl-1-[4-(2-hydroxy-3,3-dimethyl-butoxy)-3-methyl-phenyl]-propyl}-2-methyl-benzoyl)-methyl-amino]-acetic acid]			~ 11%	21			
CCC(CC)(c1ccc(OCC(O)C(C)(C)C)c(C)c1)c1cc(C)c(C(=O)Nc2nnn[nH]2)s1 (stereo not drawn) [Cmpd3, 3'-[4-(2-hydroxy-3,3-dimethylbutoxy)-3-methylphenyl]-3'-[5-(tetrazol-5-yl-aminocarbonyl)-4-methylthiophen-2-yl]pentane]					~ 13%	~ 20%	~ 9%
